Experimental data reported in ChEMBL document CHEMBL2429832, “N-substituted 8-aminopentacyclo[5.4.0.0(2,6).0(3,10).0(5,9)]undecanes as σ receptor ligands with potential neuroprotective effects” (Bioorg Med Chem, 2013).

Tests used:
[1] = biological target: GABA-A receptor; agonist GABA site (Homo sapiens) (UniProt P14867+P47870+P28472+P48169+P34903+P18505+P47869+P31644+Q16445); experiment: Inhibition of GABAA receptor (unknown origin) at 10 uM by PDSP assay relative to control; type: protein-complex assay
[2] = biological target: T1, Muscarinic acetylcholine receptor M2 (Homo sapiens) (UniProt P08172); experiment: Inhibition of muscarinic M2 receptor (unknown origin) at 10 uM by PDSP assay relative to control
T1 sequence (whole entry): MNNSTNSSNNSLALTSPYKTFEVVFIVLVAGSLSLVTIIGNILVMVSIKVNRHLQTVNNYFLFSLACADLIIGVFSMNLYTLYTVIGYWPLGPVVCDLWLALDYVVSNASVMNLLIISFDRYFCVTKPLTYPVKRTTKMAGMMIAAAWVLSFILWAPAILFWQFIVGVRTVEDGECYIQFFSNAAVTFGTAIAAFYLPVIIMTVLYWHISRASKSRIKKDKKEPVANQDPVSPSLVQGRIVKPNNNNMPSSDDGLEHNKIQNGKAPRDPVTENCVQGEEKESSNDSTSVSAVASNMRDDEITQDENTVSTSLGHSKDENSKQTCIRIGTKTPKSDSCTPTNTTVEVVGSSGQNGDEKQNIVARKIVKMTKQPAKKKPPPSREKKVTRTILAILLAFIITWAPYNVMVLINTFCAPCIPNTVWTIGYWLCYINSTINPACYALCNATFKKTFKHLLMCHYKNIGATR

[3] = biological target: T2, Muscarinic acetylcholine receptor M3 (Homo sapiens, UniProt P20309); experiment: Inhibition of muscarinic M3 receptor (unknown origin) at 10 uM by PDSP assay relative to control
Target sequence in this assay (P20309 whole entry, looked up): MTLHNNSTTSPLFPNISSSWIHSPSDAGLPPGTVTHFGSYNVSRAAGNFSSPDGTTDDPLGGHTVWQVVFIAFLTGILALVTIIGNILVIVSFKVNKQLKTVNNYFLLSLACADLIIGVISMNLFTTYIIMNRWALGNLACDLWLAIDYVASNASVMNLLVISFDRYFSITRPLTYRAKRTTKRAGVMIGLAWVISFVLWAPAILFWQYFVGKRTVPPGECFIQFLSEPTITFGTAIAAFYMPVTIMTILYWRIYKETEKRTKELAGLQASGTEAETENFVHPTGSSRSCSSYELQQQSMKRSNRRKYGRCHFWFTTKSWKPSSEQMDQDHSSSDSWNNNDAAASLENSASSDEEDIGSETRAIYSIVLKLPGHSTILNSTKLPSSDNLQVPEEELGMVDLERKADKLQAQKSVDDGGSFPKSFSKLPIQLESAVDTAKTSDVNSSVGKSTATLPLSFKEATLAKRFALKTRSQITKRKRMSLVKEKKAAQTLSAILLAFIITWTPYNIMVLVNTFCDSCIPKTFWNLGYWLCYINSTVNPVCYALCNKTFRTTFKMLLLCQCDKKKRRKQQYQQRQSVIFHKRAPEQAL

[4] = biological target: Sodium-dependent serotonin transporter (Homo sapiens, UniProt P31645); experiment: Displacement of [3H]-citalopram from human SERT expressed in HEK cell membranes at 10 uM relative to control; conditions: HEK293
Sodium-dependent serotonin transporter, sequence (P31645 whole entry, looked up): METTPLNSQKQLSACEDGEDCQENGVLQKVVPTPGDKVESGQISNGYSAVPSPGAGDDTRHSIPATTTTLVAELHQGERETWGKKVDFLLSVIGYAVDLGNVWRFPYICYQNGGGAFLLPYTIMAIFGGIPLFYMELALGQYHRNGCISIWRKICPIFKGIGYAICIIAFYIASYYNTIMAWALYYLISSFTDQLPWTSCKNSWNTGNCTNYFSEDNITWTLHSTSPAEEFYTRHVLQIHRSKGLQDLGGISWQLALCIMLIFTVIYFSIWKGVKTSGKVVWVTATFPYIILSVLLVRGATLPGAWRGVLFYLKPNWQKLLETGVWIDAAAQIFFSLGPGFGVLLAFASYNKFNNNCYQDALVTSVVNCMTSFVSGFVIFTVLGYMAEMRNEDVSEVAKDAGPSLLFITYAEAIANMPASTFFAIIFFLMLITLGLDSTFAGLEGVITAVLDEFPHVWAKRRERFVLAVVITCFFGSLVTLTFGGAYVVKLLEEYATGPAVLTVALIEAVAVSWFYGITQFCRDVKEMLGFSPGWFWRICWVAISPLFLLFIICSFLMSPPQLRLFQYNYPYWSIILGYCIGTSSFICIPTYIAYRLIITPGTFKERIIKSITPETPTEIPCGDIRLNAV

D(1B) dopamine receptor [5] = biological target: T3, D(1B) dopamine receptor (Homo sapiens, UniProt P21918); experiment: Inhibition of dopamine D5 receptor (unknown origin) by PDSP assay
T3 sequence (P21918 whole entry): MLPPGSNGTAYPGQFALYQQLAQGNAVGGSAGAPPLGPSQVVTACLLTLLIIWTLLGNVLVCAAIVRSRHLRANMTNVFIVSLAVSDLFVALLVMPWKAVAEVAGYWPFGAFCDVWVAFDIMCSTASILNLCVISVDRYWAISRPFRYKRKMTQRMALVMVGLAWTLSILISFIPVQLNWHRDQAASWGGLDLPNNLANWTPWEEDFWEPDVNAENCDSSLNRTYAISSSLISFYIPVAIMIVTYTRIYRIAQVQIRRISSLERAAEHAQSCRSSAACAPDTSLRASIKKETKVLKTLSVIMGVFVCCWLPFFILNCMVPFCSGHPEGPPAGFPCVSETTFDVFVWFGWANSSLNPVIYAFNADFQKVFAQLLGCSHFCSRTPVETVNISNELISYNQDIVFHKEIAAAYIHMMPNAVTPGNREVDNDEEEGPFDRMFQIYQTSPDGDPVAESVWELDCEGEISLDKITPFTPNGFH

D(2) dopamine receptor = D(2) dopamine receptor (Homo sapiens, UniProt P14416); experiment: Inhibition of dopamine D2 receptor (unknown origin) at 10 uM by PDSP assay relative to control
D(2) dopamine receptor, sequence (P14416 whole entry): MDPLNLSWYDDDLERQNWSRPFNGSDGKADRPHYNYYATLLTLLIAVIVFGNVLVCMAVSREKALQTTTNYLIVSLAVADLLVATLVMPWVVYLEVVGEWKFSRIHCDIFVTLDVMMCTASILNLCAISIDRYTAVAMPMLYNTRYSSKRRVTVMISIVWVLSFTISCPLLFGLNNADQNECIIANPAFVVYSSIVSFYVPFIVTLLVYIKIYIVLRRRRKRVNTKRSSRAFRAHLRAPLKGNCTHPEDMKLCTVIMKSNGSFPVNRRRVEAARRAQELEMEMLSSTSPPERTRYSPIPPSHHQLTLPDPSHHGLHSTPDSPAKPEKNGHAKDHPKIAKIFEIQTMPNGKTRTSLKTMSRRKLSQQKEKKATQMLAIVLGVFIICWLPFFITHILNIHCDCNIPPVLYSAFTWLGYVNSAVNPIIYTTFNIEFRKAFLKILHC

[6] = biological target: T4, Sodium-dependent dopamine transporter (Homo sapiens, UniProt Q01959); experiment: Displacement of [3H]-WIN-35,428 from human DAT expressed in HEK cell membranes at 10 uM relative to control; conditions: HEK293
T4 sequence (Q01959 whole entry): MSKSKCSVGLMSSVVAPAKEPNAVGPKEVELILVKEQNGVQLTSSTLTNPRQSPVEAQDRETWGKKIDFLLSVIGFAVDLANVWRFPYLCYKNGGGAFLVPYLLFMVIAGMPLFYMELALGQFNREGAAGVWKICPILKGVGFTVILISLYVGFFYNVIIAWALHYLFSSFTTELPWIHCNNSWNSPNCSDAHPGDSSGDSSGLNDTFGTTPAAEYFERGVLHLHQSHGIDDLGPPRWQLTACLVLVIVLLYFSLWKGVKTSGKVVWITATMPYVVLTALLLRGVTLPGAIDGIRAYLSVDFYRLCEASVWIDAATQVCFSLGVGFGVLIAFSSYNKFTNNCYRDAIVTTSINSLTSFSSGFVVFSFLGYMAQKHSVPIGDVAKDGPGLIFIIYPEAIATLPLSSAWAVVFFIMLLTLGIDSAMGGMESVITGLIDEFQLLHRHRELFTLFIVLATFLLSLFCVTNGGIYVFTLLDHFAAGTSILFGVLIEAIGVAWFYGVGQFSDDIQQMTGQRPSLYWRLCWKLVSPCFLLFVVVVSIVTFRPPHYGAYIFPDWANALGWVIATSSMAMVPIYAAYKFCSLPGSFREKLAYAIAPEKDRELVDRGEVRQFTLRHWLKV

Histamine H2 receptor = Histamine H2 receptor (Homo sapiens, UniProt P25021); experiment: Inhibition of histamine H2 receptor (unknown origin) by PDSP assay
Histamine H2 receptor, sequence (P25021 whole entry): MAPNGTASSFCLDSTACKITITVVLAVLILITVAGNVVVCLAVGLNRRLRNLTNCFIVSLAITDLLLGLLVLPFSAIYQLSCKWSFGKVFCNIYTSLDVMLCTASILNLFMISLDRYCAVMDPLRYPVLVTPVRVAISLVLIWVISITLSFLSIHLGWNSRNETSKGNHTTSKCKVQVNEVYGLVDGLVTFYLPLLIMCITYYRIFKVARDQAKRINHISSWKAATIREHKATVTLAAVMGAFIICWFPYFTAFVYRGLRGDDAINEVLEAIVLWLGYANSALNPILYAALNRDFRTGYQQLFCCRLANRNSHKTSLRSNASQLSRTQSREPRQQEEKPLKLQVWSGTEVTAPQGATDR

[7] = biological target: T5, Alpha-1B adrenergic receptor (Homo sapiens) (UniProt P35368); experiment: Inhibition of adrenergic alpha1B receptor (unknown origin) at 10 uM by PDSP assay relative to control
T5 sequence (whole entry): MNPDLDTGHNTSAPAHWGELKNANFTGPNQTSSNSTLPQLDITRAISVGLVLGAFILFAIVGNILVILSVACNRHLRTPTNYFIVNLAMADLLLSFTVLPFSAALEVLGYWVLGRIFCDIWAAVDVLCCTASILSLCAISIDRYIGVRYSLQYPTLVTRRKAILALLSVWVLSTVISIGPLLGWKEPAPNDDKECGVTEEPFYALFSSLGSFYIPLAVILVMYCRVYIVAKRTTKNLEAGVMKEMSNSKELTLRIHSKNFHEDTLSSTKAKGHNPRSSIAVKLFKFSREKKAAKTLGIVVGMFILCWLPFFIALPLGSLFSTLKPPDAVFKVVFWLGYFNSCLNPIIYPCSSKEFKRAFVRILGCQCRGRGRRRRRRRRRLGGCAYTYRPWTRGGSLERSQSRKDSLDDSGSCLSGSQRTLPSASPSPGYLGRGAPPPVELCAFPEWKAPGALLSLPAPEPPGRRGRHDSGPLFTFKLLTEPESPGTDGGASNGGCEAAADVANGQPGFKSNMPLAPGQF

[8] = biological target: T2, Muscarinic acetylcholine receptor M3; experiment: Inhibition of muscarinic M3 receptor (unknown origin) by PDSP assay
Target sequence in this assay (P20309 whole entry): as the sequence (P20309 whole entry, looked up) above

[9] = biological target: T6, Muscarinic acetylcholine receptor M5 (Homo sapiens, UniProt P08912); experiment: Inhibition of muscarinic M5 receptor (unknown origin) by PDSP assay
T6 sequence (P08912 whole entry): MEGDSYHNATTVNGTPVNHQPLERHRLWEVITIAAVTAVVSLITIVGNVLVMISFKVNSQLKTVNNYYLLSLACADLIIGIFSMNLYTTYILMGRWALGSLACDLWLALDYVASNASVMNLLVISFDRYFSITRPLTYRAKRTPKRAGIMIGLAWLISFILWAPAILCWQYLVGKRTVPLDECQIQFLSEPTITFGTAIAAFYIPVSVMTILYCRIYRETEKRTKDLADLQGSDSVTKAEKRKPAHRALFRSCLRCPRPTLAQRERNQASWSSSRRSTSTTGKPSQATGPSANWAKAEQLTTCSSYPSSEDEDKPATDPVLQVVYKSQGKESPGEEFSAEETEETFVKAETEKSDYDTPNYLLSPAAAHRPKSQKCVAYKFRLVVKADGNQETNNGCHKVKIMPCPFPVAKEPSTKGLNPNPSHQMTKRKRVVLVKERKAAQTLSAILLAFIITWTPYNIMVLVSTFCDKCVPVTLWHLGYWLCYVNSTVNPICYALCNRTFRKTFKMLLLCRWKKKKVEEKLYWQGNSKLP

[10] = biological target: T4, Sodium-dependent dopamine transporter; experiment: Displacement of [3H]-WIN-35,428 from human DAT expressed in HEK cell membranes; design: species or system HEK293
D(1B) dopamine receptor [11] = biological target: T3, D(1B) dopamine receptor; experiment: Inhibition of dopamine D5 receptor (unknown origin) at 10 uM by PDSP assay relative to control
Histamine H1 receptor = Histamine H1 receptor (Homo sapiens, UniProt P35367); experiment: Inhibition of histamine H1 receptor (unknown origin) by PDSP assay
Histamine H1 receptor, sequence (P35367 whole entry): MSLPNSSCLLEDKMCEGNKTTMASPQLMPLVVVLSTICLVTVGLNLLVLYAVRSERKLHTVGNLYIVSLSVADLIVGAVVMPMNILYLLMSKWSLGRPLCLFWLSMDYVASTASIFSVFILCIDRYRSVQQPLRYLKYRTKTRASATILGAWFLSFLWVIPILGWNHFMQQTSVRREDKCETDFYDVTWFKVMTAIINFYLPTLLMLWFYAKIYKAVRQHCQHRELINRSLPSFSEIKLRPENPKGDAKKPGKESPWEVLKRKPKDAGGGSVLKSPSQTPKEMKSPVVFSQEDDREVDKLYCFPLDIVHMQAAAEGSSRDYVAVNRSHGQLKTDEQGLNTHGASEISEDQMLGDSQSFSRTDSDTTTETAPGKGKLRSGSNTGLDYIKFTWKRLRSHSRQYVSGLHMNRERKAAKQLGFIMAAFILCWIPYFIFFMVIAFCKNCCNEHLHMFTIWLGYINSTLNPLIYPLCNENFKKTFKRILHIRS

[12] = biological target: T7, Muscarinic acetylcholine receptor M4 (Homo sapiens) (UniProt P08173); experiment: Inhibition of muscarinic M4 receptor (unknown origin) at 10 uM by PDSP assay relative to control
T7 sequence (whole entry): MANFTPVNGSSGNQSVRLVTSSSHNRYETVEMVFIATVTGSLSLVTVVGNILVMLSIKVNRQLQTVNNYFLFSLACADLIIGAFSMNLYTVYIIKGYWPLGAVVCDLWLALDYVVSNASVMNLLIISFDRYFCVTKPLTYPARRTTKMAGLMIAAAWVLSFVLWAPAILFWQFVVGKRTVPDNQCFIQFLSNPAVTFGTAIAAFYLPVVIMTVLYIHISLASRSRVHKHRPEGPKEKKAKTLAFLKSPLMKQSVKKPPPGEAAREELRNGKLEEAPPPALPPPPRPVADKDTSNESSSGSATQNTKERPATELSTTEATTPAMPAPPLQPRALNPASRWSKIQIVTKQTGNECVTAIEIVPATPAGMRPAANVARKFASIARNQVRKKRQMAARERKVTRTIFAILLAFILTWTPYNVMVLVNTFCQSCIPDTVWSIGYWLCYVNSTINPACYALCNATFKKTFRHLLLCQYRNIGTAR

SMILES | inhibition [1] | inhibition [2] | inhibition [3] | inhibition [4] | Ki (D(1B) dopamine receptor [5]) | inhibition (D(2) dopamine receptor) | inhibition [6] | Ki (Histamine H2 receptor) | inhibition [7] | Ki [8] | Ki [9] | Ki [10] | inhibition (D(1B) dopamine receptor [11]) | Ki (Histamine H1 receptor) | inhibition [12]
COc1ccc(CN(C)[C@H]2C3C4CC5C6C4CC3C6C52)cc1OC (stereo partly specified) | < 50% | < 50% | < 50% | < 50% | > 10 µM | < 50% | < 50% | 1.87 µM | < 50% |  |  |  |  |  | 
COc1cc(CN(C)[C@H]2C3C4CC5C6C4CC3C6C52)cc(OC)c1OC (stereo partly specified) | < 50% | < 50% | < 50% |  |  | < 50% |  |  | < 50% |  |  | > 10000 nM |  |  | 
CN(CCc1ccccn1)[C@H]1C2C3CC4C5C3CC2C5C41 (stereo partly specified) | < 50% |  | < 50% | < 50% |  | < 50% | < 50% |  | < 50% |  |  |  | < 50% |  | 
CN(CCCc1cccc(F)c1)[C@H]1C2C3CC4C2C(=O)C2C4C3C21 (stereo partly specified) | < 50% |  |  | < 50% |  | < 50% | < 50% |  | < 50% | 1300 nM | 2910 nM |  |  |  | 
C1CCC(CN[C@H]2C3C4CC5C6C4CC3C6C52)CC1 (stereo partly specified) | < 50% |  | < 50% | < 50% |  | < 50% | < 50% |  | < 50% |  | 3000 nM |  | < 50% |  | 
CN(CCCc1cccc(F)c1)[C@H]1C2C3CC4C5C3CC2C5C41 (stereo partly specified) | < 50% | < 50% | < 50% | < 50% |  | < 50% | < 50% |  | < 50% |  |  |  |  |  | 
C1C2C3CC4C2C2C1C3[C@H](NCC13C5C6C7C5C1C7C63)C42 (stereo partly specified) | < 50% |  |  | < 50% |  |  |  | 6.27 µM | < 50% | 466 nM | 595 nM | 126 nM | < 50% | 4.74 µM | 
COc1ccc(CN[C@H]2C3C4CC5C6C4CC3C6C52)cc1OC (stereo partly specified) |  | < 50% | < 50% |  |  | < 50% | < 50% | 1.48 µM | < 50% |  |  |  | < 50% | 1.36 µM | < 50%
CN(Cc1ccccc1)[C@H]1C2C3CC4C5C3CC2C5C41 (stereo partly specified) | < 50% | < 50% | < 50% | < 50% |  | < 50% |  | > 10 µM | < 50% |  |  | > 10000 nM |  |  | < 50%
COc1ccc(CN(C)[C@H]2C3C4CC5C3C(=O)C3C5C4C32)cc1OC (stereo partly specified) | < 50% | < 50% | < 50% | < 50% | > 10 µM | < 50% | < 50% |  | < 50% |  |  |  |  |  | 
c1ccc(CCN[C@H]2C3C4CC5C6C4CC3C6C52)nc1 (stereo partly specified) |  |  |  | < 50% |  |  |  |  |  | 2120 nM | 5800 nM | 1560 nM | < 50% |  | 
CN(CC1CCCCC1)[C@H]1C2C3CC4C5C3CC2C5C41 (stereo partly specified) | < 50% | < 50% | < 50% | < 50% |  | < 50% | < 50% |  |  |  |  |  | < 50% |  | < 50%
CN(CCc1ccccc1)[C@H]1C2C3CC4C5C3CC2C5C41 (stereo partly specified) | < 50% | < 50% | < 50% | < 50% |  |  | < 50% | 3.04 µM | < 50% |  |  |  |  |  | < 50%
c1ccc(CCN[C@H]2C3C4CC5C6C4CC3C6C52)cc1 (stereo partly specified) |  |  |  | < 50% |  |  |  | 3.9 µM | < 50% | 2150 nM | 2000 nM | 2020 nM | < 50% |  | 
c1ccc(CN[C@H]2C3C4CC5C6C4CC3C6C52)cc1 (stereo partly specified) |  | < 50% | < 50% | < 50% |  | < 50% |  | 3.47 µM |  |  |  | 3480 nM | < 50% | > 10 µM | < 50%

Continued, values first:

inhibition [1] | inhibition [2] | inhibition [3] | inhibition [4] | Ki (D(1B) dopamine receptor [5]) | inhibition (D(2) dopamine receptor) | inhibition [6] | Ki (Histamine H2 receptor) | inhibition [7] | Ki [8] | Ki [9] | Ki [10] | inhibition (D(1B) dopamine receptor [11]) | Ki (Histamine H1 receptor) | inhibition [12] | SMILES
< 50% |  |  | < 50% |  | < 50% | < 50% |  | < 50% | 1060 nM | 1990 nM |  |  |  |  | CN(Cc1ccccc1)[C@H]1C2C3CC4C2C(=O)C2C4C3C21 (stereo partly specified)
< 50% |  | < 50% | < 50% |  | < 50% | < 50% |  | < 50% |  | 4240 nM |  |  | > 10 µM |  | CN(CCc1cccc(F)c1)[C@H]1C2C3CC4C2C(=O)C2C4C3C21 (stereo partly specified)
< 50% |  | < 50% | < 50% |  | < 50% | < 50% |  | < 50% |  |  |  |  |  | < 50% | CN(Cc1cccnc1)[C@H]1C2C3CC4C5C3CC2C5C41 (stereo partly specified)
< 50% |  | < 50% | < 50% | > 10 µM | < 50% | < 50% |  | < 50% |  |  |  |  |  |  | CN(Cc1cccnc1)[C@H]1C2C3CC4C2C(=O)C2C4C3C21 (stereo partly specified)
< 50% |  | < 50% | < 50% |  | < 50% | < 50% |  | < 50% |  |  |  |  |  | < 50% | CN(CCc1ccccn1)[C@H]1C2C3CC4C2C(=O)C2C4C3C21 (stereo partly specified)
< 50% |  | < 50% | < 50% |  | < 50% |  | > 10 µM | < 50% |  | 2420 nM | 1290 nM |  |  |  | CN(CCc1ccccc1)[C@H]1C2C3CC4C2C(=O)C2C4C3C21 (stereo partly specified)
< 50% |  |  | < 50% |  | < 50% |  |  | < 50% | 1780 nM |  | 4520 nM |  |  |  | CN(Cc1cccc(F)c1)[C@H]1C2C3CC4C2C(=O)C2C4C3C21 (stereo partly specified)
